From PMC10934261, “Designing Potent Anti-Cancer Agents: Synthesis and Molecular Docking Studies of Thieno[2,3-d][1,2,4]triazolo[1,5-a]pyrimidine Derivatives” (Molecules, 2024)

Legend:
[1] = tested on: human colorectal HCT-116 cancer cell line; test: In vitro cytotoxic screening (MTT assay), HCT-116; type: cell-based; details: for IC50: Homo sapiens, HCT-116, 48 h incubation, mean of three values, read-out: IC50 (Mean ± SD) HCT-116; for Percentage cytotoxicity on HCT-116: average ± standard deviation
Procedure: (§1) Using human breast MCF-7, colorectal HCT-116, and prostate PC-3 cancer cell lines, preliminary antiproliferative effectiveness of cyclopenta[4,5]thieno[2,3-d][1,2,4]triazolo[1,5-a]pyrimidin-9(6H)-ones 4–16 was established in vitro through MTT assay at different concentrations (100, 50, 25 and 12.5 μM) (Figure 2).
(§2) The cell lines were obtained from Karolinska Center, Department of Oncology and Pathology, Karolinska Institute and Hospital, Stockholm, Sweden. as follows: human breast MCF-7, colorectal HCT-116 and prostate PC-3 cancer cell lines and human skin normal BJ-1 cell line. Exponentially, cells were cultured at a concentration of 10^4 cells/well for 24 h, afterwards fresh medium containing different concentrations of the tested samples was added. Serial two-fold dilution of the tested samples were added using a multichannel pipette. Moreover, all cells were cultivated at 37 °C, 5% CO2 and 95% humidity. Also, incubation of control cells occurred at 37 °C. However, after incubation for 24 h different concentrations of samples (100, 50, 25 and 12.5 µM) were added and the incubation was continued for 48 h, then crystal violet solution 1% was added to each well for 0.5 h to examine the presence of viable cells. After rinsing the wells using water until stain free, 30% glacial acetic acid was added to all wells with shaking the plates on a Microplate reader (TECAN, Inc.) to measure the absorbance at a wavelength of 490 nm. The cytotoxicity was estimated by IC50 in μM, which is the concentration that inhibits 50% of growth of cancer cells. […]
(§3) 1.1. In vitro cytotoxic screening
(§4) The cell lines were obtained from Karolinska Center, Department of Oncology and Pathology, Karolinska Institute and Hospital, Stockholm, Sweden. as follows: human breast MCF-7, colorectal HCT-116 and prostate PC-3 cancer cell lines and human skin normal BJ-1 cell line. Exponentially, cells were placed in 10^4 cells/ well for 24 h, and then add fresh medium which containing different concentration of the tested sample. Serial two-fold dilution of the tested sample were added using a multichannel pipette. Moreover, all cells were cultivated at 37 °C, 5% CO2 and 95% humidity. Also, incubation of control cells occurred at 37 °C. However, after incubation for 24 h different concentrations of sample (100, 50, 25 and 12.5 µM) were added and continued the incubation for 48 h, then, add the crystal violet solution 1% to each well for 0.5 h to examine viable cells. Rinse the wells using water until no stain. After that, add 30% glacial acetic acid to all wells with shaking plates on Microplate reader (TECAN, Inc.) to measure the absorbance, using a test wavelength of 490 nm. Besides, compare the treated samples with the control cell. The cytotoxicity was estimated by IC50 in (μ M), the concentration that inhibits 50% of growth of cancer cell. […]
(§5) The molecular docking simulation of the promising in vitro screened cyclopenta[4,5]thieno[2,3-d][1,2,4]triazolo[1,5-a]pyrimidin-9(6H)-ones 10b and 10e against EGFR and PI3K was done using the Molecular Operating Environment software (MOE-Dock) version 2014.0901. The co-crystallized structures of EGFR and PI3K kinases complexed with their native ligands, erlotinib and quinolone LXX, were downloaded from the protein data bank (PDB codes: 1M17 and 3L54, respectively). All minimizations were performed using MOE until an RMSD gradient of 0.05 kcal∙mol−1Å−1 with MMFF94x force field and the partial charges were automatically calculated. Preparation of the enzyme structures was done for molecular docking using Protonate 3D protocol with the default options in MOE. London dG scoring function and Triangle Matcher placement method were used in the docking protocol. Initially, the original ligands were re-docked into the active binding site of EGFR and PI3K kinases to assess the root-mean-square deviation values. Then, the docking studies of the newly targeted […]

[2] = tested on: human prostate PC-3 cancer cell line; test: In vitro cytotoxic screening (MTT assay), PC-3; type: cell-based; details: for IC50: Homo sapiens, PC-3, 48 h incubation, mean of three values, read-out: IC50 (Mean ± SD) PC-3; for Percentage cytotoxicity on PC-3: average ± standard deviation
Procedure: as §1, §2, §3, §4, §5

[3] = tested on: human skin normal cell line (BJ-1); test: Cytotoxicity on normal cells (MTT assay), BJ-1; type: cell-based; details: for IC50: Homo sapiens, BJ-1 normal skin cells, 48 h incubation, mean of three values, read-out: IC50 (Mean ± SD) BJ-1; for Percentage cytotoxicity on normal BJ1 human skin fibroblast cell line: average ± standard deviation
Procedure: It can therefore be concluded that 10b presents a safer cytotoxicity profile than 10e.
as §2, with “However, after incubation for 24 h different concentrations of samples (100, 50, 25 and 12.5 µM) were added and the incubation was continued for 48 h, then crystal violet solution 1% was added to each well for 0.5 h to examine the presence of viable cells.” left out
as §3
The cell lines were obtained from Karolinska Center, Department of Oncology and Pathology, Karolinska Institute and Hospital, Stockholm, Sweden. as follows: human breast MCF-7, colorectal HCT-116 and prostate PC-3 cancer cell lines and human skin normal BJ-1 cell line. Exponentially, cells were placed in 10^4 cells/ well for 24 h, and then add fresh medium which containing different concentration of the tested sample. Serial two-fold dilution of the tested sample were added using a multichannel pipette. Moreover, all cells were cultivated at 37 °C, 5% CO2 and 95% humidity. Also, incubation of control cells occurred at 37 °C. […]
Rinse the wells using water until no stain. After that, add 30% glacial acetic acid to all wells with shaking plates on Microplate reader (TECAN, Inc.) to measure the absorbance, using a test wavelength of 490 nm. Besides, compare the treated samples with the control cell. The cytotoxicity was estimated by IC50 in (μ M), the concentration that inhibits 50% of growth of cancer cell. […]
as §5, with “targeted compounds were estimated within the ATP-binding sites after elimination of the co-crystallized” for “targeted”
Percentage cytotoxicity of 100 µM of the compounds on human tumor cell lines*

[4] = tested on: human breast MCF-7 cancer cell line; test: In vitro cytotoxic screening (MTT assay), MCF-7; type: cell-based; details: for IC50: Homo sapiens, MCF7, MCF-7, 48 h incubation, mean of three values, read-out: IC50 (Mean ± SD) MCF-7; for Percentage cytotoxicity on MCF-7: average ± standard deviation
Procedure: as §1, §2, §3, §4, §5

| SMILES | melting point | IC50 [1] | IC50 [2] | IC50 [3] | IC50 [4] | Percentage cytotoxicity on HCT-116 ([1]; 12.5 µM) | Percentage cytotoxicity on HCT-116 ([1]; 25 µM) | Percentage cytotoxicity on HCT-116 ([1]; 50 µM) | Percentage cytotoxicity on HCT-116 ([1]; 100 µM) | Percentage cytotoxicity on PC-3 ([2]; 12.5 µM) | Percentage cytotoxicity on PC-3 ([2]; 25 µM) | Percentage cytotoxicity on PC-3 ([2]; 50 µM) | Percentage cytotoxicity on PC-3 ([2]; 100 µM) | Percentage cytotoxicity on normal BJ1 human skin fibroblast cell line ([3]; 12.5 µM) | Percentage cytotoxicity on normal BJ1 human skin fibroblast cell line ([3]; 25 µM) | Percentage cytotoxicity on normal BJ1 human skin fibroblast cell line ([3]; 50 µM) | Percentage cytotoxicity on MCF-7 ([4]; 12.5 µM) | Percentage cytotoxicity on MCF-7 ([4]; 25 µM) | Percentage cytotoxicity on MCF-7 ([4]; 50 µM) | Percentage cytotoxicity on MCF-7 ([4]; 100 µM) | further results |
| --- | --- | --- | --- | --- | --- | --- | --- | --- | --- | --- | --- | --- | --- | --- | --- | --- | --- | --- | --- | --- | --- |
| COc1cccc2c1C(=O)c1c(O)c3c(c(O)c1C2=O)C[C@@](O)(C(=O)CO)C[C@@H]3O[C@H]1C[C@H](N)[C@H](O)[C@H](C)O1 [Doxorubicin, reference compound] | – | 20.5 ± 2.1 µM | 6.8 ± 1.2 µM | 49.2 ± 1.08 µM | 40 ± 3.9 µM | – | – | – | – | – | – | – | – | – | – | – | – | – | – | – | – |
| O=c1c2c3c(sc2nc2[nH]c(-c4c5ccccc5cc5ccccc45)nn12)CCC3 [Compound 10e, 2-(Anthracen-9-yl)-3,6,7,8-tetrahydro-9H-cyclopenta[4,5]thieno[2,3-d][1,2,4]triazolo[1,5-a]pyrimidin-9-one] | 101 to 103 °C | 57 ± 0.61 µM | 25.2 ± 0.4 µM | 34.8 ± 4.5 µM | 14.5 ± 0.3 µM | 0.0±0.005% | 19.0±4.9% | 34.9±2.8% | 86.7±4.4% | 29.6±3.8% | 56.6±1.3% | 64.2±1.1% | 75.9±1.3% | 13.8±2.1% | 44.8±1.9% | 58.1±3.2% | 37.9±6.7% | 85.6±3.6% | 97.9±1.2% | 98.3±0.5% | Percentage cytotoxicity on normal BJ1 human skin fibroblast cell line ([3]; 100 µM): 83.9±1.2% |

Now from value to compound, other results behind:

| melting point | SMILES | IC50 [1] | IC50 [2] | IC50 [3] | IC50 [4] | Percentage cytotoxicity on HCT-116 ([1]; 12.5 µM) | Percentage cytotoxicity on HCT-116 ([1]; 25 µM) | Percentage cytotoxicity on HCT-116 ([1]; 50 µM) | Percentage cytotoxicity on HCT-116 ([1]; 100 µM) | Percentage cytotoxicity on PC-3 ([2]; 12.5 µM) | Percentage cytotoxicity on PC-3 ([2]; 25 µM) | Percentage cytotoxicity on PC-3 ([2]; 50 µM) | Percentage cytotoxicity on PC-3 ([2]; 100 µM) | Percentage cytotoxicity on normal BJ1 human skin fibroblast cell line ([3]; 12.5 µM) | Percentage cytotoxicity on normal BJ1 human skin fibroblast cell line ([3]; 25 µM) | Percentage cytotoxicity on normal BJ1 human skin fibroblast cell line ([3]; 50 µM) | Percentage cytotoxicity on MCF-7 ([4]; 12.5 µM) | Percentage cytotoxicity on MCF-7 ([4]; 25 µM) | Percentage cytotoxicity on MCF-7 ([4]; 50 µM) | Percentage cytotoxicity on MCF-7 ([4]; 100 µM) | further results |
| --- | --- | --- | --- | --- | --- | --- | --- | --- | --- | --- | --- | --- | --- | --- | --- | --- | --- | --- | --- | --- | --- |
| 268 to 270 °C | O=c1c2c3c(sc2nc2[nH]c(-c4ccc(Br)cc4)nn12)CCC3 [Compound 10b, 2-(4-Bromophenyl)-7,8-dihydro-3H-cyclopenta[4,5]thieno[2,3-d][1,2,4]triazolo[1,5-a]pyrimidin-9(6H)-one] | – | – | 222 ± 30 µM | 19.4 ± 0.22 µM | 6.2±0.9% | 14.3±1.7% | 15.0±2.5% | 24.4±6.6% | 10.9±5.2% | 18.4±1.7% | 22.1±0.6% | 41.4±0.7% | 16.8±8.3% | 34.2±7.4% | 34.6±3.8% | 30.3±4.3% | 64.4±2.2% | 80.8±2.8% | 86.4±10% | Percentage cytotoxicity on normal BJ1 human skin fibroblast cell line ([3]; 100 µM): 39.3±7.7% |
| > 300 °C | CC(=O)OC[C@@H](OC(C)=O)[C@@H](OC(C)=O)[C@H](OC(C)=O)c1nc2nc3sc4c(c3c(=O)n2[nH]1)CCC4 [Compound 12d, (1R,2S,3R)-1-(9-oxo-1,7,8,9-tetrahydro-6H-cyclopenta[4,5]thieno[2,3-d][1,2,4]triazolo[1,5-a]pyrimidin-2-yl)butane-1,2,3,4-tetrayl tetraacetate] | – | – | – | – | 0.0±0.005% | 0.0±0.005% | 0.0±0.005% | 9.5±1.2% | 0.0±0.005% | 0.0±0.005% | 0.0±0.005% | 14.1±6.2% | – | – | – | 0.0±0.005% | 0.0±0.005% | 0.0±0.005% | 26.9±4.8% | – |
| > 300 °C | O=c1c2c3c(sc2nc2nc([C@@H](O)[C@@H](O)[C@H](O)[C@H](O)CO)[nH]n12)CCC3 [Compound 11c, 2-((1R,2R,3R,4R)-1,2,3,4,5-pentahydroxypentyl)-1,6,7,8-tetrahydro-9H-cyclopenta[4,5]thieno[2,3-d][1,2,4]triazolo[1,5-a]pyrimidin-9-one] | – | – | – | – | 12.7±1.7% | 19.5±3.7% | 22.3±0.9% | 20.6±5.4% | 0.0±0.005% | 0.0±0.005% | 0.0±0.005% | 8.5±4.5% | – | – | – | 0.0±0.005% | 0.0±0.005% | 16.5±2.1% | 38.7±1.5% | – |
